# Measurements: US10471025B2, “Compositions for use in treating parkinson's disease and related disorders” (Technophage, Investigação E Desenvolvimento Em …, priority 2015, dated 2019)
# Like-named read-outs stand apart in the source and are kept apart here.
# Key:
# [1] = sc; cited from earlier work
# [2] = in water; cited from earlier work
# [3] = in vivo, cited from earlier work
# [4] = test system: 6-OHDA treated zebrafish larvae; assay: Co-administration with L-Dopa, total distance 6-OHDA larvae move; format: in vivo; settings: total distance; L-Dopa 250 or 125 μM
# [5] = test system: 6-OHDA treated zebrafish larvae; assay: Locomotor behavior rescue (total distance moved, number of jumps) in 6-OHDA zebrafish PD model; format: in vivo; settings: for Effective concentration / peak, small range plot: phenotype recovery, total distance moved
# Description: To model Parkinson ̆s disease (PD), a neurotoxin 6-OHDA (6-hyroxydopamine) based method was used in zebrafish and in mice. In this model, 6-OHDA-lesions induce motor manifestations in zebrafish and in mice, such as reduced locomotor ability, and the loss of dopaminergic neurons. Based on the 6-OHDA PD zebrafish model, compounds from a small molecules library were screened for rescue of the parkinsonian phenotype (Example 1, see below).
# The screen was based on both the recovery of impaired locomotor behavior and dopaminergic neuronal loss.
# Values were normalized for the mean of disease state in each experiment (disease=1). Each plot contains data from 3 independent experiments with a total of 24 larvae. As a control, zebrafish were treated with only the vehicle, ascorbic acid.
# For these experiments, Tubingen (TU) wild-type zebrafish, a specific strain of wild-type zebrafish, were used.
# [6] = test system: rat; settings: rat, cited from earlier work
# [7] = test system: 6-OHDA treated zebrafish larvae; assay: LD50 / lethality in the disease context of the zebrafish model; settings: 6-OHDA disease-induced zebrafish larvae
# [8] = test system: 6-OHDA treated zebrafish larvae; assay: Rescue of Tyrosine hydroxylase (TH)-positive dopaminergic neurons in 6-OHDA zebrafish larvae; format: in vivo; settings: for Neurorescue: TH+ neurons at optimal dose, p; for Neuroprotective effect / recovery of TH+ neurons: at the optimal concentration of each molecule
# Description: The 7 candidates also were tested in terms of rescue of dopaminergic neurons positive for Tyrosine hydroxylase (Th) in the substancia nigra pars compacta of the test animals. […] Results were normalized for healthy control values (healthy control=100% of neurons). As a control, zebrafish were treated with only the vehicle, ascorbic acid. ‘6-OHDA_ represents results in zebrafish receiving no treatment.
# FIGS. 6E-6G show representative Z-projections of confocal stacks of whole-mount anti-TH immunohistochemistry in 6 days post-fertilization (dpf) of zebrafish larvae (age of the fish) control (FIG. 6E), 6-OHDA (FIG. 6F), and tapentadol treated-larvae (FIG. 6G).
# [9] = test system: 6-OHDA mouse model; assay: Cylinder test, 6-OHDA mice (Example 5); format: in vivo; settings: vs 6-OHDA group; daily i.p.
# [10] = test system: 6-OHDA mouse model; assay: Open field test, 6-OHDA mice (Example 5); format: in vivo; settings: 9 days post lesion, vs 6-OHDA group
# Description: Open field testing evaluates mainly spontaneous activity. […] Four different parameters were recorded: maximum velocity (FIGS. 18A, 19A, and 20A), total distance moved (FIGS. 18B, 19B, and 20B), mean velocity (FIGS. 18C, 19C, and 20C), and latency to first reach the walls (FIGS. 18D, 19D, and 20D). All parameters were determined by the analysis of a 5 minute video, recorded 30 minutes after therapeutic administration. Values mean ě SEM (n=3-8).
# For total distance moved (FIGS. 18B, 19B, and 20B) and mean velocity (FIGS. 18C, 19C, and 20C), an hour video also was analyzed for an animal per group, to evaluate the effect of the drug with time. For these analyses, a 5 minute video prior to therapeutic administration also was taken. […] Ethovision V10 system was used for making the videos for analysis.
# [11] = test system: 6-OHDA mouse model; assay: Abnormal involuntary movements, 6-OHDA mice (Example 5); format: in vivo; settings: mouse, in vivo
# Description: This condition results in a range of involuntary movements that can be evaluated by video tracking analyses. […] Evaluations were performed during two independent trials, 30 and 90 minutes after treatment administration. […] Nonetheless, forelimb and orofacial involuntary movements are extremely hard to detect, and reading errors occur, considering the size of the animals. Total abnormal involuntary movements are the sum of all 4 different involuntary movements evaluated and is the parameter often reported in the literature.
# As FIGS. 17A-17F show, abnormal involuntary movements were evaluated using the cylinder test 28 days post injection. […] Values mean ě SEM (n=5-8).
# [12] = test system: 6-OHDA treated zebrafish larvae; assay: Freezing (duration of freezing periods, light/dark stimulus) in 6-OHDA zebrafish larvae; format: in vivo; settings: tapentadol 48.5, stavudine 50, nabumetone 0.91 μM; L-Dopa treatment
# Description: In the zebrafish model, the locomotor impairment was measured and related with bradykinesia in patients. Tests included evaluating ‘freezing_ in response to a light/dark stimulus. 6-OHDA induced larvae had fewer freezing episodes but spent longer periods in the frozen state. In previous studies, the duration of freezing episodes has been analyzed in PD patients. […] Nonetheless, it is an inhibitor of the neuronal dopamine transporter and since 6-OHDA needs DAT to enter the neuron and induce the disease, methylphenidate may be a false positive.
# As FIGS. 9B-9C show, freezing recovery was tested using 7 candidate molecules at optimal concentrations, in an exemplary experiment with n=8 fish, and methylphenidate and amantadine at 25 ? M.
structure (smiles),measurement,setting,value
C#CCN[C@@H]1CCc2ccccc21 [Rasagiline],Effective rat dose,[1],0.8 mg/kg/day
same,Solubility,[2],53 mg/ml in
same,Oral bioavailability,[3]; po,35%
same,Half-life,[3],1.5 to 3.5 h
same,Effect of co-administration with L-Dopa on locomotor recovery,[4],increased effect
same,"Effective concentration / peak, small range plot",[5],25 µM
same,LD50,[6],300 mg/kg
same,LD50,[7],187.5 | M
same,Neurorescue,[8],confirmed P < 0.11
same,Neuroprotective effect / recovery of TH+ neurons,[8],confirmed
"N[C@@H](Cc1ccc(O)c(O)c1)C(=O)O [L-Dopa, Levodopa]",Cylinder test: number of rearings,[9],no difference
same,Cylinder test: percentage of animals with tremor,[9],motor recovery was observed
same,Cylinder test: percentage of contralateral paw use,[9],motor recovery was observed
same,Solubility,[2],3.3 mg/ml in
same,Open field: latency to first reach the walls,[10],did not show motor improvement
same,Induction of abnormal involuntary movements,[11],induced these involuntary movements
same,Optimal concentration,[5]; behavioral experiments and TH+ cell counts,250 µM
same,"Effective concentration / peak, small range plot",[5],100 µM
same,LD50,"[6]; in vivo, po",1780 mg/kg
same,LD50,[7],>5 mM
same,"Duration of freezing periods, recovery vs 6-OHDA treated larvae",[12],no recovery
same,Neurorescue,[8],no
same,Neuroprotective effect / recovery of TH+ neurons,[8],does not induce the recovery of TH+ neurons
same,Neuroprotection of TH+ neurons,"[8]; where the disease is less severe (sig *), preliminary",can be neuroprotective
